Assay results published in article PMC3793977, “High-Throughput Screening (HTS) and Hit Validation to Identify Small Molecule Inhibitors with Activity against NS3/4A proteases from Multiple Hepatitis C Virus Genotypes” (PLoS ONE, 2013).
Values joined by “and” are separate entries in the source; they are usually repeats but may differ in a detail not shown here. Identical values can stand only once.

Columns and labels:
[1] = molecular target: T1, full-length NS3/4A genotype 1b mutant R155K (Hepatitis C virus genotype 1b, UniProt Q9WMX2, R1181K); test: Inhibition assay with drug-resistant mutant R155K; assay type: biochemical
T1 construct: wild-type HCV NS3 (HCV polyprotein residues 1027–1657); His-tag (N); made in house
Procedure: The full-length genes of wild-type HCV NS3 (HCV polyprotein residues 1027–1657) with a his-tag at the N-terminus and NS4A (residues 1658–1711) with no tag were cloned, co-expressed, and purified as described. Eight NS3 drug resistant mutants (V36M, V36A, T54A, R155K, R155T, A156T, A156S, and 156V) were generated by mutagenesis using full-length, wild-type NS3-containing recombinant plasmid (pETDuet-1/FL NS3/4A) as a template. The over-expression and purification of all mutants were performed by the same method as the wild-type with minor modifications.
The inhibitory activity of the final hit compounds from HTS were tested against three other HCV genotypes (1a, 2a, and 4d), along with a control (genotype 1b) and five NS3 drug-resistant mutants. Eight full-length NS3 mutants (V36M, R155K, A156T, A156S, 156V, V36A, T54A, and R155T) were generated by mutagenesis and purified, and the three HCV NS3/4A protease genotypes were purchased from Anaspec. Unfortunately the enzyme activities of the three mutants V36A, T54A, and R155T were much less than that of the rest of the mutants and were insufficient for testing, therefore mutant studies were done with the five active mutants. Continuous kinetic assays were performed against all hit compounds in the same way as the wild-type NS3/4A. […]

[2] = molecular target: T2, HCV replicon cell lysate sg 2a (NS3) (Hepatitis C virus genotype 2a, UniProt Q99IB8); test: Whole cell lysate inhibition assay, HCV subgenomic replicon 2a; assay type: biochemical
T2 construct: expressed in transfected cells; host or cells: Huh7 cells stably replicating the JFH-1 subgenomic replicon; whole cell lysate
Procedure: Huh7-1 cells (also known as Huh7/scr cells) were obtained from F.V. Chisari (The Scripps Research Institute, La Jolla, CA). Clone B HCV sub-genotype 1b Huh7 cells were obtained from the NIH AIDS Research and Reference Reagent Program and have been previously described. Huh7 cells stably replicating the sub-genotype 2a HCV JFH-1 replicon were generated as previously described. All cells were cultured in complete Dulbecco’s modified Eagle’s medium (DMEM) supplemented with 10% fetal bovine serum, 100 units/mL penicillin, […] streptomycin, and 2 mM L-glutamine. HCV replicon cells were maintained in 500 µg/mL Geneticin (Invitrogen). For NS3 inhibition analysis, lysates from parental Huh7 cells and HCV replicon cells were harvested on ice in pre-chilled FRET cell lysis buffer (50 mM Tris-HCl, pH 7.5; 150 mM NaCl, 2 mM EDTA, 1.25% Triton X-100). Lysates were brought to room temperature and mixed 1∶1 with 2× FRET assay buffer (100 mM Tris-HCl, pH 7.5, 300 mM NaCl, 4 mM EDTA, 2.5% Triton X-100, 10 mM GSH, and 4 µM substrate). Fluorescence intensity was continuously monitored for 1 hour, and IC50 values were determined in the same way as biochemical assays.

Structure (SMILES): Cc1cc(NC(=O)Cc2csc(NS(=O)(=O)c3ccccc3)n2)ccc1Br [Compound 12]
- IC50 [1]: ≤ 20 µM
- fold increase of IC50, whole cell lysate 2a vs biochemical assay ([2]; sg2a lysate compared to purified enzyme): 10–20 fold
- IC50 ([2]; whole cell lysate, subgenomic replicon 2a): < 120 µM and 115 µM
